The values below are quoted from earlier work in US12496330B2, “Methods of improving spinal fusion with abaloparatide” (Radius Health, Inc., priority 2019, dated 2025).

In the data set the test system is bone resorption and bone formation markers. Particulars: male mice; at 4-fold the current dose.

Regarding `CC[C@H](C)[C@H](NC(=O)[C@H](CCC(=O)O)NC(=O)[C@H](CO)NC(=O)[C@@H](NC(=O)[C@@H](N)CO)C(C)C)C(=O)N[C@@H](CCC(N)=O)C(=O)N[C@@H](CC(C)C)C(=O)N[C@@H](CCSC)C(=O)N[C@@H](Cc1cnc[nH]1)C(=O)N[C@@H](CC(N)=O)C(=O)N[C@@H](CC(C)C)C(=O)NCC(=O)N[C@@H](CCCCN)C(=O)N[C@@H](Cc1cnc[nH]1)C(=O)N[C@@H](CC(C)C)C(=O)N[C@@H](CC(N)=O)C(=O)N[C@@H](CO)C(=O)N[C@@H](CCSC)C(=O)N[C@@H](CCC(=O)O)C(=O)N[C@@H](CCCN=C(N)N)C(=O)N[C@H](C(=O)N[C@@H](CCC(=O)O)C(=O)N[C@@H](Cc1c[nH]c2ccccc12)C(=O)N[C@@H](CC(C)C)C(=O)N[C@@H](CCCN=C(N)N)C(=O)N[C@@H](CCCCN)C(=O)N[C@@H](CCCCN)C(=O)N[C@@H](CC(C)C)C(=O)N[C@@H](CCC(N)=O)C(=O)N[C@@H](CC(=O)O)C(=O)N[C@H](C(=O)N[C@@H](Cc1cnc[nH]1)C(=O)N[C@@H](CC(N)=O)C(=O)N[C@@H](Cc1ccccc1)C(=O)O)C(C)C)C(C)C` [teriparatide], the Bone resorption markers entry was “increased”.
